Here are results for six molecules from patent US20040023884A1, “Biologically active peptides from functional domains of bactericidal/permeability-increasing protein and uses thereof” (priority 1993, published 2004).

Ends that are not written are not given here.

Assay [1] relates to rough mutant E. coli J5 bacteria. In words: Radial diffusion bactericidal assay, E. coli J5. In kind it is cell-based. The settings on record: radial diffusion; for bactericidal activity (in words): E. coli J5; for pmol added to well to achieve a 30 mm^2 bactericidal zone, E. coli J5: PROBIT analysis, E. coli J5 (rough). Summed up: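 Wells received 5 or 10 μL of BPI fragment, pre-incubated 3 h at 37 °C. The underlayer agarose carried washed log-phase organisms at 4×10^6 CFU/mL.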

Assay [2] can be described thus: 3H-heparin binding assay (affinity and capacity). The settings on record: for Heparin Capacity: heparin bound at saturation; for Kd: read-out: Heparin Affinity. Summed up:
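Bound 3H-heparin was counted by liquid scintillation after 1 h incubation at 4 °C with fragments immobilised on PVDF-bottomed wells, then washing in blocking buffer. Signal was corrected for BSA-related background, and varying amounts of rBPI23 were used as positive control.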

The test system of assay [3] is E. coli 0111:B4 (smooth) bacteria. In words: Radial diffusion bactericidal assay, E. coli 0111:B4. The class given is cell-based. Conditions: radial diffusion; PROBIT analysis; E. coli O111:B4 (smooth).
The test system of the next assay is Staphylococcus aureus. In words: Radial diffusion bactericidal assay, Staphylococcus aureus. In kind it is cell-based. Conditions: radial diffusion; PROBIT analysis; S. aureus.
The nature of assay [4]: In vitro heparin-mediated lengthening of APTT / clotting time of heparinized plasma. Conditions: FIG. 12g. In kind it is biochemical, human. The procedure: In vitro, the effect of BPI combination functional domain peptides was determined on heparin-mediated lengthening of activated partial […] (APTT). The APTT is lengthened by the presence of endogenous or exogenous inhibitors of thrombin formation, such as therapeutically administered heparin. Thus, agents which neutralize the anti-coagulant effects of heparin will reduce the APTT measured by the test. Citrated human plasma (200 μL) was incubated for 1 minute at 37° C. with either 15 μL of diluent (0.15 M NaCl, 0.1 M Tris-HCl, pH 7.4) or 15 μL of the diluent also containing 25 μg/mL heparin (187 units/mg). Various concentrations (from 0.0 to 56 μg/mL) of rBPI23, rBPI21Δcys, or BPI combination peptides BPI.29 (the DIII homodimer) and BPI.30 (heterodimer DII+DIII) in a volume of 15 μL were added, followed immediately by 100 μL of thrombin reagent (Catalog No. 845-4, Sigma Chemical Co., St. Louis. MO). Clotting time ([…]) was measured using a BBL Fibrometer (Becton Dickenson Microbiology Systems, Cockeysville, Md.). […] FIG. 12e illustrates the results obtained with BPI.30 on a non-log scale.

The subject of assay [5] is zymosan-stimulated NO production by RAW 264.7 cells. In words: Zymosan-stimulated NO production by RAW 264.7 cells. The class given is cell-based, mouse. The procedure: (§1) An additional LPS neutralization screening assay for BPI functional domain peptides was developed using an assay for NO production in mouse cells treated with LPS (see Lorsbach et al., 1993, J. Biol. Chem. 268: 1908-1913). In this assay, mouse RAW 264.7 cells (ATCC Accession No. TIB71) were treated with bacterial LPS. The cells were incubated in 96-well plates and stimulated for 2 hours with E. coli 0113 LPS or zymosan, in the presence or absence of _-interferon, rLBP, fetal bovine serum (FBS) or normal human serum (NHS), or rBPI21Δcys. After this incubation, the cells were washed with fresh media and incubated overnight in media containing 10% FCS. The NO released from the cells accumulated in the media and spontaneously converted to nitrite. This nitrite was assayed in situ by the Griess reaction, as follows. The nitrite was reacted with the primary amine of an added sulfanilamide and formed a diazonium salt. This salt was then reacted with added naphthylethylenediamine to form a red azo-dyc. The Griess reaction was performed at room temperature in about 10 minutes. The amount of produced NO was estimated from a standard curve of Griess reaction products determined spectrophotometrically as Absorbance at a wavelength of 550 nm.

The test system of the next assay is E. coli 0113 LPS. In words: Limulus Amoebocyte Lysate (LAL) inhibition assay. In kind it is biochemical. Conditions: alanine variant relative to BPI.13. The protocol: BPI proteolytic fragments produced according to Example 1 were subjected to a Limulus Amoebocyte Lysate (LAL) inhibition assay to determine LPS binding properties of these fragments. Specifically, each of the fragments were mixed in Eppendorf tubes with a fixed concentration of E. coli 0113 LPS (4 ng/mL final concentration) and incubated at 37° C. for 3 hours with occasional shaking. Addition controls comprising rBPI23 at 0.05 μg/mL were also tested. Following incubation, 360 μL of Dulbecco's phosphate buffered saline (D-PBS; Grand Island Biological Co. (GIBCO), Long Island, N.Y.) were added per tube to obtain an LPS concentration of 200 pg/mL for the LAL assay. Each sample was then transferred into Immulon II strips (Dynatech, Chantilly, Va.) in volumes of 50 μl per well.
Limulus amoebocyte Lysate (Quantitative Chromogenic LAL kit, Whitaker Bioproducts, Inc., Walkersville, Md.) was added at 50 μL per well and the wells were incubated at room temperature for 25 minutes. Chromogenic substrate was then added at a volume of 100 μL per well and was well mixed. After incubation for 20 to 30 minutes at room temperature, the reaction was stopped with addition of 100 μL of 25% (v/v) acetic acid. Optical density at 405 nm was then measured in a multiplate reader (Model Vmax, […], Menlo Park, Calif.) with the results shown in FIG. 2 in terms of percent inhibition of LPS. In this Figure, the filled circle represents rBPI23; the open circle represents Asp-N fragment A3; the x represents Asp-N fragment A2, the filled square represents Asp-N fragment A4; the filled triangle represents Asp-N fragment A1A2; the open square represents Asp-N fragment A6a; the small open triangle represents CNBr fragment C3; and the small filled square represents CNBr fragment C1/C5.

The test system of the next assay is C. albicans. In words: Radial diffusion fungicidal assay, Candida albicans. The class given is cell-based. The settings on record: radial diffusion.
For the next assay, the system named is Candida albicans. The class given is cell-based.
Assay [6] is described as follows: Lipid A binding competition with [125I]-rLBP. The procedure:
A second binding assay was developed, wherein radiolabeled recombinant LPS binding protein ([^125I]-rLBP) was used instead of radiolabeled rBPI23 in competition experiments with BPI functional domain peptides BPI.2, BPI.3, BPI.4, BPI.5, BPI.7, BPI.13, BPI.14, BPI.29, BPI.30 and BPI.48, rBPI, rBPI21Δcys, and rLBP25 were included in these assays as controls. In these experiments, Lipid A was adsorbed to the wells at a concentration of 0.7 μg/mL in methanol. Incubation of radiolabeled rLBP (a total of 650,000 cpm and a specific activity of 3.45 μCi/μg) was performed for 2.5 hr at 37° C. in the presence of BPI peptides in a series of increasing concentrations. IC50 values (i.e., the concentration at which Lipid A binding of radiolabeled rLBP25 is inhibited to one half the value achieved in the absence of the peptide) are shown in accompanying Table XI.

The test system of assay [7] is LPS-stimulated NO production by RAW 264.7 cells. In words: LPS-stimulated NO production by RAW 264.7 cells. In kind it is cell-based, mouse. The procedure:
as §1

As to GTAALQKELKRIKIPDYSDSFKIKHLGKGH [BPI.14], in assay [1], the “bactericidal activity (in words)” value is on record as “little or no bactericidal activity” and the “pmol added to well to achieve a 30 mm^2 bactericidal zone, E. coli J5” value (shortened to “pmol added to well … E. coli J5”) is “b (no detectable activity up to 5 μg/well)”. Moreover, in assay [2], the “heparin binding capacity (in words)” value is listed as “low heparin binding capacity”, the “Heparin Capacity” value stood at 119.3 ng and the Kd was found to be 396 nM. Further, the “pmol added to well to achieve a 30 mm^2 bactericidal zone, E. coli O111:B4” value (from here on “pmol added to well … E. coli O111:B4”) in [3] is “b (no detectable activity up to 5 μg/well)”. The “pmol added to well to achieve a 30 mm^2 bactericidal zone, S. aureus” value in the assay with Staphylococcus aureus is on record as “b (no detectable activity up to 5 μg/well)”. In addition, the “effect on the clotting time of heparinized blood (in words)” value (from here on “effect on the clotting time”) in assay [4] is “less of a decrease in clotting times”. In addition, the “inhibition of zymosan-stimulated NO production (in words)” value in assay [5] is “not inhibited”.
In the case of KSKVGWLIQLFAKK [BPI.42], the “pmol added to well … E. coli J5” value in assay [1] worked out at 264.80 pmol. In addition, the “HEPCAP (x Fold change in activity)” value in assay [2] (heparin binding capacity, relative to BPI.13) is listed as “=1.0 x Fold”. Moreover, in assay [2], the “Heparin Capacity” value is 369.1 ng and the Kd amounted to 820 nM. Besides, in assay [2] (vs unsubstituted peptide), the “decline of Kd of heparin binding” value is 1.2 fold. Besides, the “LAL (relative difference)” value in the assay with E. coli 0113 LPS is listed as “= (no difference in the LAL assay)”. Moreover, the “pmol added to well … E. coli O111:B4” value in assay [3] is 3,731.70 pmol. The “C. albicans: pmol required for 30 mm^2 zone” value in the assay with C. albicans is reported as 548.49 pmol. The “MIC C. alb” value against Candida albicans is 6.25 µg/mL. For the same molecule, in the assay on Candida albicans (alanine variant relative to BPI.13), the “MIC (x Fold change in fungicidal activity)” value is on record as “=”.
As for KSKVGWLIQLFHAK [BPI.43], the “pmol added to well … E. coli J5” value in [1] stood at 729.40 pmol. Moreover, in [2], the “Heparin Capacity” value is listed as 283.9 ng and the Kd was 492 nM. Further, in the assay with E. coli 0113 LPS, the “LAL (relative difference)” value was “= (no difference in the LAL assay)”. For the same molecule, the “pmol added to well … E. coli O111:B4” value in assay [3] was 4,872.30 pmol. In the assay on C. albicans, the “C. albicans: pmol required for 30 mm^2 zone” value is given as 784.78 pmol. Further, the “MIC C. alb” value in the assay on Candida albicans was 12.50 µg/mL.
For the molecule LQKELKRIKIPDYSDSFKIKHL [BPI.4], in assay [1], the “bactericidal activity (in words)” value is reported as “little or no bactericidal activity” and the “pmol added to well … E. coli J5” value was “b (no detectable activity up to 5 μg/well)”. Also, in assay [2], the “heparin binding capacity (in words)” value is “low heparin binding capacity”, the “Heparin Capacity” value is listed as 80.8 ng and the Kd is 336 nM. The “pmol added to well … E. coli O111:B4” value in [3] is “b (no detectable activity up to 5 μg/well)”. For the same molecule, in the assay on Staphylococcus aureus, the “pmol added to well to achieve a 30 mm^2 bactericidal zone, S. aureus” value is listed as “b (no detectable activity up to 5 μg/well)”. In addition, the “effect on the clotting time” value in [4] is “less of a decrease in clotting times”. For the same molecule, the “inhibition of zymosan-stimulated NO production (in words)” value in [5] is recorded as “not inhibited”.

B1: rLBP: recombinant lipopolysaccharide binding protein (LBP holoprotein) (protein, UniProt P18428 26-481, looked up)
Lipopolysaccharide-binding …: ANPGLVARITDKGLQYAAQEGLLALQSELLRITLPDFTGDLRIPHVGRGRYEFHSLNIHSCELLHSALRPVPGQGLSLSISDSSIRVQGRWKVRKSFFKLQGSFDVSVKGISISVNLLLGSESSGRPTVTASSCSSDIADVEVDMSGDLGWLLNLFHNQIESKFQKVLESRICEMIQKSVSSDLQPYLQTLPVTTEIDSFADIDYSLVEAPRATAQMLEVMFKGEIFHRNHRSPVTLLAAVMSLPEEHNKMVYFAISDYVFNTASLVYHEEGYLNFSITDDMIPPDSNIRLTTKSFRPFVPRLARLYPNMNLELQGSVPSAPLLNFSPGNLSVDPYMEIDAFVLLPSSSKEPVFRLSVATNVSATLTFNTSKITGFLKPGKVKVELKESKVGLFNAELLEALLNYYILNTFYPKFNDKLAEGFPLPLLKRVQLYDLGLQIHKDFLFLGANVQYMRV
For B1, the “inhibition of zymosan-stimulated NO production (in words)” value in assay [5] was “no significant inhibition”.

B2: rLBP25: LBP amino-terminal fragment, first 197 amino acids of lipopolysaccharide binding protein (protein)
chain: MGALARALPSILLALLLTSTPEALGANPGLVARITDKGLQYAAQEGLLALQSELLRITLPDFTGDLRIPHVGRGRYEFHSLNIHSCELLHSALRPVPGQGLSLSISDSSIRVQGRWKVRKSFFKLQGSFDVSVKGISISVNLLLGSESSGRPTVTASSCSSDIADVEVDMSGDLGWLLNLFHNQIESKFQKVLESRICEMIQKSVSSDLQPYLQTLPVTTEIDSFADIDYSLVEAPRATAQMLEVMFKGEIFHRNHRSPVTLLAAVMSLPEEHNKMVYFAISDYVFNTASLVYHEEGYLNFSITDEMIPPDSNIRLTTKSFRPFVPRLARLYPNMNLELQGSVPSAPLLNFSPGNLSVDPYMEIDAFVLLPSSSKEPVFRLSVATNVSATLTFNTSKITGFLKPGKVKVELKESKVGLFNAELLEALLNYYILNTFYPKFNDKLAEGFPLPLLKRVQLYDLGLQIHKDFLFLGANVQYMRV
On to B2, for which the “effect on the clotting time” value in [4] is “less of a decrease in clotting times”. Further, the “IC50 (inhibition of Lipid A binding of radiolabeled rLBP)” value in assay [6] was found to be 15 µg/mL. Also, the IC50 in [6] (read-out: IC50 (inhibition of Lipid A binding of radiolabeled rLBP)) came to 600 nM. Further, the “inhibition of LPS-stimulated NO production (in words)” value in assay [7] was “inhibited in a concentration-dependent manner”. Further, the “inhibition of zymosan-stimulated NO production (in words)” value in assay [5] is on record as “No inhibition”.
